Data taken from US11414379B2, “SPAK kinase inhibitors as neuroprotective agents” (United States Government as represented by the Department …, priority 2018, dated 2022).

Tested on: SPAK Ser373, NKCC1 Thr203/207/212 and KCCs phosphorylation
Assay: Phosphorylation immunoblot in HEK293 cells
Type: cell-based, human
Method: HEK293 (human embryonic kidney 293) cells were cultured on 10-cm-diameter dishes in DMEM supplemented with 10% (v/v) foetal bovine serum, 2 mM L-glutamine, 100 U/ml penicillin and 0.1 mg/ml streptomycin. HEK293 cells were transfected with a mixture of 20 μl of 1 mg/ml polyethylenimine (Polysciences) and 5-10 μg of plasmid DNA as described previously (Durocher et al., 2002). 36 hours post-transfection cells were stimulated with either control isotonic or hypotonic medium for a period of 30 minutes. Cells were lysed in 0.3 mL of ice-cold lysis buffer/dish, lysates were clarified by centrifugation at 4° C. for 15 minutes at 26,000 g and the supernatant aliquots were frozen in liquid nitrogen and stored at −20° C. Protein concentrations were determined using the Bradford method. Cells were treated with the indicated concentrations of the SPAK/OSR1 inhibitors. […] Hypotonic low chloride buffer was 67.5 mM sodium-gluconate, 2.5 mM potassium-gluconate, 0.25 mM CaCl2), 0.25 mM MgCl2, 0.5 mM Na2HPO4, 0.5 mM Na2SO4 and 7.5 mM HEPES (pH 7.5).
The membranes were incubated for 30 min with TBST (Tris-buffered saline, 0.05% Tween-20) containing 5% (w/v) skim milk. […] After repeating the washing steps, signals were detected with enhanced chemiluminescence reagent. […] The densities of bands were measured with ImageJ. […]

## Cc1cc(C(C#N)c2ccc(Cl)cc2)c(Cl)cc1NC(=O)c1cc(Cl)ccc1O (centres unmarked) [ZT-1a, 5-chloro-N-(5-chloro-4-((4-chlorophenyl)(cyano)methyl)-2-methylphenyl)-2-hydroxy-benzamide]
  concentration inhibiting phosphorylation of SPAK Ser373, NKCC1 Thr203/207/212 and KCCs: 3 µM
dose-dependent (1-10), hypotonic low Cl- and isotonic conditions
  effect on SPAK/OSR1 Ser373/Ser325 and NKCC1 Thr203/Thr207/Thr212 phosphorylation: markedly inhibited
